Assay results: patent publication US20250230138A1, “COMPOUNDS HAVING A T-STRUCTURE FORMED BY AT LEAST FOUR CYCLES FOR USE IN THE TREATMENT OF CANCER AND OTHER INDICATIONS” (TheRas, Inc., priority 2022, published 2025)
Where two headings read alike, the source gives them in different places.

Assays:
[1] = molecular target: Cys242 in human PIK3CA (157-299) (Homo sapiens (Human), UniProt P42336); test: Covalent modification assay using MALDI-TOF MS; format: biochemical; details: 4 h reaction time point
How it was run: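 Covalent adduct formation was read by linear-mode MALDI-TOF with sinapinic acid matrix, reported as modified-protein peak height divided by total protein peak heights. Reactions held PIK3CA (157-299) at 1 or 3.33 μM in HEPES/NaCl/MgCl2 buffer, pH 7.3, sampled after 15 min to 4 h at room temperature.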

pAKT in BT474 cells = test: Cell-based pAKT HTRF assay in BT474 cells; details: BT474 cells, 4 hr incubation, read-out: pAKT inhibition IC50 in BT474 cells
How it was run: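 pAKT was measured by HTRF after a 4 hr compound exposure in BT474 cells (DMEM, 10% FBS, 0.25% DMSO), using 9 concentrations from 3 μM in 3-fold steps. Cell lysates were incubated with the Eu cryptate/d2 antibody pair at room temperature for 4 to 24 h. The plate was then read at 320 nm excitation and 615 nm emission.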

[2] = 3.33 μM protein target, 1:7.5 protein to compound ratio (compounds 1-852)
[3] = 1 μM protein target, 1:5 protein to compound ratio (compounds 853-1279)
[4] = Homo sapiens, BT-474, Compounds 10-999

Cys242 in human PIK3CA (157-299), sequence (P42336 157-299): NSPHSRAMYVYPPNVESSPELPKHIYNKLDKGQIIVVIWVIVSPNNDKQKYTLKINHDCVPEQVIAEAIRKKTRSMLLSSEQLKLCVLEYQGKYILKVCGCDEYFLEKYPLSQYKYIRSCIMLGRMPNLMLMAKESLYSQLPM

C=CC(=O)N1CCc2nc(-c3nc(-c4ccc5c(c4)C(O)CC5)c4ccsc4c3-c3ccc(F)cc3OCCOC)sc2C1 (centres unmarked) [Compound 152]
% of modification [1, 2]: A (percent of modification of PIK3CA protein ≥75%) | IC50 (pAKT in BT474 cells; Compounds 10-999): < 0.1 µM

C=CC(=O)N1CCc2nc(-c3nc(-c4ccc5c(c4)C(O)CC5)c4ccsc4c3-c3c(F)cc(F)cc3OCCOC)sc2C1 (centres unmarked) [Compound 416]
% of modification [1, 2]: A (percent of modification of PIK3CA protein ≥75%) | IC50 (pAKT in BT474 cells; Compounds 10-999): < 0.1 µM

C=CC(=O)N1CCn2nc(-c3nc(-c4ccnc(N(C)C)c4)c4ccsc4c3-c3c(F)cc(F)cc3OCCOC)cc2[C@@H]1C [Compound 965]
% of modification [1, 3]: A (percent of modification of PIK3CA protein ≥75%) | IC50 (pAKT in BT474 cells; Compounds 10-999): 0.1 to 1 µM

C=CC(=O)N1Cc2cc(-c3nc(-c4ccc5c(c4)CCN(C)C5)c4ccsc4c3-c3c(F)cc(F)cc3OC[C@@H](C)O)nn2[C@@H](C)C1 [Compound 589]
% of modification [1, 2]: D (percent of modification <25%) | IC50 (pAKT in BT474 cells; Compounds 10-999): < 0.1 µM

C=CC(=O)N1CCc2ncc(-c3nc(-c4ccn(C)c(=O)c4)c4ccsc4c3-c3c(F)cc(F)cc3OCCOC)cc2C1 [Compound 374]
% of modification [1, 2]: A (percent of modification of PIK3CA protein ≥75%) | IC50 (pAKT in BT474 cells; Compounds 10-999): < 0.1 µM

C=CC(=O)N1CC(n2cc(-c3nc(N4CC5CNCC5C4)c4ccsc4c3-c3ccc(F)cc3OCCOC)cn2)C1 (centres unmarked) [Compound 134]
% of modification [1, 2]: B (50%<percent of modification <75%) | IC50 (pAKT in BT474 cells; Compounds 10-999): 1 to 3 µM

C=CC(=O)N1Cc2cc(-c3nc(C45CC(CN(C)C)(C4)C5)c4ccsc4c3-c3c(F)cc(F)cc3OCCOC)nn2C[C@H]1C [Compound 1168, 1-((6R)-2-(7-(2,4-difluoro-6-(2-methoxyethoxy)phenyl)-4-(3-((dimethylamino)methyl)bicyclo[1.1.1]pentan-1-yl)thieno[3,2-c]pyridin-6-yl)-6-methyl-6,7-dihydropyrazolo[1,5-a]pyrazin-5(4H)-yl)prop-2-en-1-one]
% of modification [1, 3]: B (50%<percent of modification <75%) | IC50 (pAKT in BT474 cells; Homo sapiens, BT-474, Compounds 1000-1279): 0.1 to 1 µM

C=CC(=O)N1CCc2nc(-c3nc(-c4ccc5oc(C)nc5c4)c4ccsc4c3-c3c(F)cc(F)cc3OCCOC)sc2C1 [Compound 428]
% of modification [1, 2]: A (percent of modification of PIK3CA protein ≥75%) | IC50 (pAKT in BT474 cells; Compounds 10-999): < 0.1 µM

C=CC(=O)N1CCn2nc(-c3nc(-c4cnn(C)c4)c4c(c3-c3ccc(F)cc3OC)C(F)CC4)cc2C1 (centres unmarked) [Compound 574, 1-(2-(5-fluoro-4-(4-fluoro-2-methoxyphenyl)-1-(1-methyl-1H-pyrazol-4-yl)-6,7-dihydro-5H-cyclopenta[c]pyridin-3-yl)-6,7-dihydropyrazolo[1,5-a]pyrazin-5(4H)-yl)prop-2-en-1-one]
% of modification [1, 2]: A (percent of modification of PIK3CA protein ≥75%) | IC50 (pAKT in BT474 cells; [4]): < 0.1 µM

C=CC(=O)N1CCn2nc(-c3nc(-c4ccc5c(c4)ncn5C)c4ccsc4c3-c3c(F)cc(F)cc3OC[C@@H](C)O)cc2[C@H]1C [Compound 761]
% of modification [1, 2]: A (percent of modification of PIK3CA protein ≥75%) | IC50 (pAKT in BT474 cells; Compounds 10-999): < 0.1 µM

C=CC(=O)N1CCn2nc(-c3nc(-c4ccc(CC(=O)N(C)C)cc4)c4ccsc4c3-c3c(F)cc(F)cc3OCCOC)cc2C1C (centres unmarked) [Compound 1090]
% of modification [1, 3]: A (percent of modification of PIK3CA protein ≥75%) | IC50 (pAKT in BT474 cells; Compounds 1000-1279): < 0.1 µM

C=CC(=O)N1CCn2nc(-c3nc(-c4ccc(=O)n(CC(F)F)c4)c4ccsc4c3-c3ccc(F)cc3OCCOC)cc2C1 [Compound 266]
% of modification [1, 2]: A (percent of modification of PIK3CA protein ≥75%) | IC50 (pAKT in BT474 cells; Compounds 10-999): < 0.1 µM

C=CC(=O)N1CCn2nc(-c3nc(N4CC5(CNC(=O)C5)C4)c4ccsc4c3-c3c(F)cc(F)cc3OCCOC)cc2C1C (centres unmarked) [Compound 1013]
% of modification [1, 3]: A (percent of modification of PIK3CA protein ≥75%) | IC50 (pAKT in BT474 cells; Compounds 1000-1279): 0.1 to 1 µM

C=CC(=O)N1C[C@H](C)n2nc(-c3nc(-c4cnn(C)c4)c4ccsc4c3-c3c(F)cc(F)cc3OCCOC)cc2[C@@H]1C [Compound 603]
% of modification [1, 2]: D (percent of modification <25%) | IC50 (pAKT in BT474 cells; Compounds 10-999): 1 to 3 µM

C=CC(=O)N1CCn2nc(-c3nc(-c4ccc5ncc(=O)n(C)c5c4)c4ccsc4c3-c3c(F)cc(F)cc3OCCO)cc2[C@H]1C [Compound 979]
% of modification [1, 3]: A (percent of modification of PIK3CA protein ≥75%) | IC50 (pAKT in BT474 cells; Compounds 10-999): < 0.1 µM

C=CC(=O)N1CCn2nc(-c3nc(-c4cnc5c(c4)CN(C)CC5)c4c(c3-c3c(F)cc(F)cc3OCCOC)CCC4)cc2C1C (centres unmarked) [Compound 1243]
% of modification [1, 3]: A (percent of modification of PIK3CA protein ≥75%) | IC50 (pAKT in BT474 cells; Compounds 1000-1279): < 0.1 µM

C=CC(=O)N1Cc2cc(-c3nc(-c4ccc5c(c4)CNC(=O)C5)c4ccsc4c3-c3c(F)cc(F)cc3OCCO)nn2CC1C (centres unmarked) [Compound 927]
% of modification [1, 3]: A (percent of modification of PIK3CA protein ≥75%) | IC50 (pAKT in BT474 cells; Compounds 10-999): < 0.1 µM

C=CC(=O)N1CCn2nc(-c3nc(-c4ccc(C(=O)NCC5CN(C)C5)cc4)c4ccsc4c3-c3c(F)cc(F)cc3OCCOC)cc2C1C (centres unmarked) [Compound 1190]
% of modification [1, 3]: A (percent of modification of PIK3CA protein ≥75%) | IC50 (pAKT in BT474 cells; Compounds 1000-1279): 0.1 to 1 µM

C=CC(=O)N1CCc2ncc(-c3nc(-c4ccc5c(c4)CCNC5)c4ccsc4c3-c3ccc(F)cc3OCCOC)cc2C1 [Compound 62, 1-[3-[7-[4-fluoro-2-(2-methoxyethoxy)phenyl]-4-(1,2,3,4-tetrahydroisoquinolin-6-yl)thieno[3,2-c]pyridin-6-yl]-7,8-dihydro-5H-1,6-naphthyridin-6-yl]prop-2-en-1-one]
% of modification [1, 2]: A (percent of modification of PIK3CA protein ≥75%) | IC50 (pAKT in BT474 cells; [4]): < 0.1 µM

C=CC(=O)N1CC(n2cc(-c3nc(-c4ccc5c(c4)CCNC5)c4ccsc4c3-c3ccc(F)cc3OCCOC)cc(C)c2=O)C1 [Compound 178]
% of modification [1, 2]: A (percent of modification of PIK3CA protein ≥75%) | IC50 (pAKT in BT474 cells; Compounds 10-999): < 0.1 µM

C=C(F)C(=O)N1CCn2nc(-c3nc(-c4ccc5c(c4)CCN(C)C5)c4ccsc4c3-c3ccc(F)cc3OC(C)C)cc2C1 [Compound 293]
% of modification [1, 2]: A (percent of modification of PIK3CA protein ≥75%) | IC50 (pAKT in BT474 cells; Compounds 10-999): < 0.1 µM

C=CC(=O)N1CCc2ccc(-c3nc(-c4ccc5c(c4)CNC(=O)C5)c4ccsc4c3-c3c(F)cc(F)cc3OCCOC)cc2C1 [Compound 1066]
% of modification [1, 3]: D (percent of modification <25%) | IC50 (pAKT in BT474 cells; Compounds 1000-1279): 0.1 to 1 µM

C=CC(=O)N1CCc2nc(-c3nc(-c4ccc5c(c4)CNC(=O)C5)c4ccsc4c3-c3c(F)cc(F)cc3OCCOC)sc2C1 [Compound 1070]
% of modification [1, 3]: A (percent of modification of PIK3CA protein ≥75%) | IC50 (pAKT in BT474 cells; Compounds 1000-1279): < 0.1 µM

C=CC(=O)N1CC(n2cc(-c3nc(C4=CCN(C(C)=O)CC4)c4ccsc4c3-c3ccc(F)cc3OC)cn2)C1 [Compound 298]
% of modification [1, 2]: A (percent of modification of PIK3CA protein ≥75%) | IC50 (pAKT in BT474 cells; Compounds 10-999): 0.1 to 1 µM

C=CC(=O)N1CCn2nc(-c3nc(-c4ccc5cnncc5c4)c4ccsc4c3-c3c(F)cc(F)cc3OCC(C)O)cc2C1C (centres unmarked) [Compound 678]
% of modification [1, 2]: A (percent of modification of PIK3CA protein ≥75%) | IC50 (pAKT in BT474 cells; Compounds 10-999): < 0.1 µM

C=CC(=O)N1CCc2nc(-c3nc(-c4ccc5c(c4)CCNC5)c4ccsc4c3-c3c(F)cc(F)cc3OCCO)sc2C1 [Compound 415]
% of modification [1, 2]: A (percent of modification of PIK3CA protein ≥75%) | IC50 (pAKT in BT474 cells; Compounds 10-999): 0.1 to 1 µM

C=CC(=O)N1CCn2nc(-c3nc(-c4ccc5c(=O)n(C)ncc5c4)c4ccsc4c3-c3c(F)cc(F)cc3OCCOC)cc2C1C (centres unmarked) [Compound 914]
% of modification [1, 3]: A (percent of modification of PIK3CA protein ≥75%) | IC50 (pAKT in BT474 cells; Compounds 10-999): < 0.1 µM

C=CC(=O)N1CCc2ncc(-c3nc(-c4ccc5nncn5c4)c4ccsc4c3-c3c(F)cc(F)cc3OCCOC)cc2C1 [Compound 941]
% of modification [1, 3]: A (percent of modification of PIK3CA protein ≥75%) | IC50 (pAKT in BT474 cells; Compounds 10-999): < 0.1 µM

C=CC(=O)N1Cc2cc(-c3nc(-c4ccc5c(cnn5C)c4)c4ccsc4c3-c3c(F)cc(F)cc3OCCOC)nn2[C@@H](C)C1 [Compound 739]
% of modification [1, 2]: A (percent of modification of PIK3CA protein ≥75%) | IC50 (pAKT in BT474 cells; Compounds 10-999): < 0.1 µM

C=CC(=O)N1Cc2cc(-c3nc(-c4ccc5c(c4)CCN(C)C5)c4ccsc4c3-c3c(F)cc(F)cc3OC(C)C)nn2C(C)C1 (centres unmarked) [Compound 556]
% of modification [1, 2]: A (percent of modification of PIK3CA protein ≥75%) | IC50 (pAKT in BT474 cells; Compounds 10-999): < 0.1 µM

C=CC(=O)N1CCn2nc(-c3nc(-c4cnn(C)c4)c4ccsc4c3-c3c(F)cc(F)cc3OCCO)cc2C1C (centres unmarked) [Compound 538]
% of modification [1, 2]: A (percent of modification of PIK3CA protein ≥75%) | IC50 (pAKT in BT474 cells; Compounds 10-999): < 0.1 µM
